# Laboratory results reported in patent publication US7547521B2, “Heteromultimeric ion channel receptor and uses thereof” (McGill University, priority 2000, dated 2009).
# “Also recorded” adds a separate entry of the source.
# Key:
# [1] = tested on: homomultimeric (ASIC2A or ASIC3) and heteromultimeric (ASIC-2S.2) channels; test: Proton-induced inward currents in oocytes expressing homomultimeric or heteromultimeric ASIC channels; assay type: cell-based; conditions: human and rat ASIC2A, ASIC3 or ASIC-2S.2-expressing oocytes
# Method: (§1) According to method 1 described above, nuclei of Xenopus oocytes are injected with ASIC2A and ASIC3 cDNAs separately subcloned into pcDNA3 expression vector (1-5 ng). Control oocytes are injected with H2O. Oocytes are maintained at 18° C. in modified Barth's solution. Proton-activated currents are measured by two-electrode voltage clamp 1-3 days after injection. During voltage clamp (−60 mV/−100 mV)), oocytes are bathed in 116 mM NaCl, 2 mM KCl, 1.8 mM CaCl2, 10 mM acetic acid and 5 mM Hepes (pH 7.4 with NaOH). To determine proton-gating, bath solution is quickly switched to a solution of pH<7.4 for 10 sec, then returned to bath solution for washout. The stimulating solution is prepared by lowering the pH of the original bath solution with hydrochloric acid. The osmolality of the solutions is verified with an osmometer and corrected with mannitol or choline chloride. To document ionic selectivity, NaCl is replaced with LiCl or KCl. Current-voltage relationships are determined by stepping from a holding potential of −60 mV to potentials between −100 and +60 mV for 10 seconds before and during stimulation with low pH solution. FIGS. 1A (human) and 1B (rat) compare proton-activated currents carried by homomultimeric ASIC2A and ASIC3 receptors to the heteromultimeric ASIC-2S.2 receptors (ASIC2a+3). […] Species differences are also noteworthy. Indeed, using human subunits, both the early fast and sustained currents are strongly potentiated, while in the case of rat, the major effect appears to be on the sustained current only.
# As described in example 2, voltage clamped oocytes expressing the ASIC-2S.2 channels are used to screen for molecules capable of modulating, activating or inhibiting channel activity.
# [2] = target: T1, human ASIC2S.2 (ASIC2A+3) receptors (Homo sapiens, UniProt Q16515+Q9UHC3, A14P/I85V/M358I/P13Q); test: Two-electrode voltage clamp of proton-gated currents in Xenopus oocytes expressing human ASIC2S.2; assay type: cell-based; conditions: 100 μM FMRFamide; normalised to maximal control current at pH 3
# T1 construct: allowing RT-PCR amplified full length nucleic acids to be directionally subcloned into pcDNA3; expressed in transfected cells; host or cells: Xenopus laevis oocytes (nuclear injection of pcDNA3 cDNAs)
# T1 sequence (Q16515 1-512): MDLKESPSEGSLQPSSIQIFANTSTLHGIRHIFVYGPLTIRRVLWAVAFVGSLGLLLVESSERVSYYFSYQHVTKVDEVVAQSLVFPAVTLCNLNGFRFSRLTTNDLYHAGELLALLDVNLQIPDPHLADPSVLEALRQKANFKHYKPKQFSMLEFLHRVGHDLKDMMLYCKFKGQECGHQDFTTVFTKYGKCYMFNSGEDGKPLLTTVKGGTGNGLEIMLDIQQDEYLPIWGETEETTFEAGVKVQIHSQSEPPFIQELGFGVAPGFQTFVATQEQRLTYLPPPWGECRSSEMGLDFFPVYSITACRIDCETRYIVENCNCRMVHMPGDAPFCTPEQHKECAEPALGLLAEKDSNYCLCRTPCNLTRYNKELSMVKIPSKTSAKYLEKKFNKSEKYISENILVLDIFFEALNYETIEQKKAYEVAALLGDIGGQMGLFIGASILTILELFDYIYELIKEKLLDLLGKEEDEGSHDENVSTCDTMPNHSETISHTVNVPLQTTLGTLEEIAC
# T1 sequence (Q9UHC3 1-531 P13Q/A14P/I85V/M358I): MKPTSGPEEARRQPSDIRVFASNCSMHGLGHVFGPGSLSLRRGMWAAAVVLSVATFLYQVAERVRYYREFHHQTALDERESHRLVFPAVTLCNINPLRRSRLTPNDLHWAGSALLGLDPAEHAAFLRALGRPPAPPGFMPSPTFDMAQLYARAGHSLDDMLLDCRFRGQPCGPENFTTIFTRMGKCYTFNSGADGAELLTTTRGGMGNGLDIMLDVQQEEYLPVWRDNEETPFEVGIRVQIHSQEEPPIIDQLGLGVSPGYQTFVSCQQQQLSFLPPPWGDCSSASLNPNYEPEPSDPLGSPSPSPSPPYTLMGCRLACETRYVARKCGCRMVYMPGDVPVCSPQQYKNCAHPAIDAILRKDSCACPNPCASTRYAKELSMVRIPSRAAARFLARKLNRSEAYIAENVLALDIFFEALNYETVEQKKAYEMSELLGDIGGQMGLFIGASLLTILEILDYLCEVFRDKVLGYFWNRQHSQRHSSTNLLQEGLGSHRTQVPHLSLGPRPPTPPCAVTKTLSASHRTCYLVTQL
# Method: as §1, with “Indeed, using human subunits, both the early fast and sustained currents are strongly potentiated, while in the case of rat, the major effect appears to be on the sustained current only.” left out
Compound,Effect on proton-induced inward currents [1],Effect on proton-induced inward currents ([1]; listed as gadolinium),Sensitivity and maximal response to acidification (pH dose-response curve) [2]
N=C(N)NC(=O)c1nc(Cl)c(N)nc1N [amiloride],inhibitory effects; also recorded: antagonistic effects,–,–
"[Gd+3] [gadolinium ions, gadolinium]",antagonistic effects,inhibitory effects,–
FMRFamide,–,–,increased
